Tests used:
Type in all cases: biochemical
[1] = biological target: T1, purified human plasma kallikrein (Homo sapiens, UniProt P03952); test: Plasma kallikrein enzyme inhibition assay (chromogenic substrate S-2302), Ki; settings: substrate S-2302, pH 7.5
T1 construct: purchased Enzyme Research Laboratories
Procedure: The effectiveness of compounds of the present invention as inhibitors of the coagulation Factors XIa, VIIa, IXa, Xa, XIIa, plasma kallikrein, thrombin, chemytrypsin or trypsin can be determined using a relevant purified serine protease, respectively, and an appropriate synthetic substrate. The rate of hydrolysis of the chromogenic or fluorogenic substrate by the relevant serine protease was measured both in the absence and presence of compounds of the present invention. […] A decrease in the rate of absorbance or fluorescence change in the presence of inhibitor is indicative of enzyme inhibition. Such methods are known to one skilled in the art. The results of this assay are expressed as the inhibitory constant, Ki.
Plasma kallikrein determinations were made in 0.1 M sodium phosphate buffer at a pH of 7.5 containing 0.1-0.2 M sodium chloride and 0.5% PEG 8000. Determinations were made using purified human plasma kallikrein (Enzyme Research Laboratories) at a final assay concentration of […] and the synthetic substrate S-2302 (H-(D)-Pro-Phe-Arg-pNA; CHROMOGENIX®) at a concentration of 0.00008-0.0004 M.
Values of Ki were determined by allowing the protease to react with the substrate in the presence of the inhibitor. Reactions were allowed to go for periods of 20-180 minutes (depending on the protease) and the velocities (rate of absorbance or fluorescence change versus time) were measured. The following relationships were used to calculate Ki values: (Vmax*S)/(Km+S) (vo−vs)/vs=I/(Ki*(1+S/Km)) for a competitive inhibitor with one binding site; or vs/vo=A+(B−A)/(1+(IC50/(I)^n)); and Ki=IC50/(1+S/Km) for a competitive inhibitor where: […]

[2] = biological target: T2, purified human Factor XIa (Homo sapiens, UniProt P03951); test: Factor XIa enzyme inhibition assay (chromogenic substrate S-2366), Ki; settings: substrate S-2366, pH 7.4
T2 construct: purchased Haematologic Technologies
T2 sequence (P03951 388-625 limits assumed): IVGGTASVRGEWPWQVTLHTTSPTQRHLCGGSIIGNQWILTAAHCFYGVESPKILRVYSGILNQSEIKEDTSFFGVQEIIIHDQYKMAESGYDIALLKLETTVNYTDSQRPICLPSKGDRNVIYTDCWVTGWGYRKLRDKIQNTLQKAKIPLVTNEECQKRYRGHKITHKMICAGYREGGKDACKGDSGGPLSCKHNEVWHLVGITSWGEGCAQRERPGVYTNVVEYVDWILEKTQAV
T2 sequence (P03951 19-387 partner limits assumed): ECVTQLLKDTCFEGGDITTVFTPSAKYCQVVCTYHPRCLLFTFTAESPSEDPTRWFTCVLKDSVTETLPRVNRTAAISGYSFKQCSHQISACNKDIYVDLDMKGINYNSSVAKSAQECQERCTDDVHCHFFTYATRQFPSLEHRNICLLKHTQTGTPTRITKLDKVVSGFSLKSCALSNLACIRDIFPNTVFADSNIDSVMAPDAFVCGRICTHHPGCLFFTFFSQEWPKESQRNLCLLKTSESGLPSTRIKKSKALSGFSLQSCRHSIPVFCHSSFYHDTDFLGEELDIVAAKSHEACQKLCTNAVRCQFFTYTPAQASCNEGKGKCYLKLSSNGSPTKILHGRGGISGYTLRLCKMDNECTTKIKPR
In short: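 Purified human Factor XIa ([…] final) with chromogenic substrate S-2366 (0.0002-0.001 M) in 50 mM HEPES pH 7.4, 145 mM NaCl, 5 mM KCl, 0.1% PEG 8000. Velocities measured over 20-180 minutes with and without inhibitor; Ki derived assuming competitive inhibition, e.g. Ki=IC50/(1+S/Km).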

[3] = test system: citrated normal human plasma; test: Activated Partial Thromboplastin Time (aPTT) plasma clotting assay; settings: inhibitor concentration required to increase the clotting time by 1.5 times
From the text: The effectiveness of compounds of the present invention as inhibitors of coagulation can be determined using a standard or modified clotting assay. An increase in the plasma clotting time in the presence of inhibitor is indicative of anticoagulation. Relative clotting time is the clotting time in the presence of an inhibitor divided by the clotting time in the absence of an inhibitor. The results of this assay may be expressed as IC1.5× or IC2×, the inhibitor concentration required to increase the clotting time by 1.5 times or 2 times, respectively, relative to the clotting time in the absence of the inhibitor. The IC1.5× or IC2× is found by linear interpolation from relative clotting time versus inhibitor concentration plots using inhibitor concentrations that span the IC1.5× or IC2×.
Clotting times are determined using citrated normal human plasma as well as plasma obtained from a number of laboratory animal species (e.g., rat, or rabbit). A compound is diluted into plasma beginning with a 10 mM DMSO stock solution. The final concentration of DMSO is less than 2%. Plasma clotting assays are performed in an automated coagulation analyzer (Sysmex, Dade-Behring, Illinois). Similarly, clotting times can be determined from laboratory animal species or humans dosed with compounds of the invention.
Activated Partial Thromboplastin Time (aPTT) is determined using ACTIN® FSL (Dade-Behring, Illinois) following the directions in the package insert. Plasma (0.05 mL) is warmed to 37° C. for 1 minute. ACTIN® FSL (0.05 mL) is added to the plasma and incubated for an additional 2 to 5 minutes. Calcium chloride (25 mM, 0.05 mL) is added to the reaction to initiate coagulation. The clotting time is the time in seconds from the moment calcium chloride is added until a clot is detected.

T1 sequence (P03952 391-638 limits assumed): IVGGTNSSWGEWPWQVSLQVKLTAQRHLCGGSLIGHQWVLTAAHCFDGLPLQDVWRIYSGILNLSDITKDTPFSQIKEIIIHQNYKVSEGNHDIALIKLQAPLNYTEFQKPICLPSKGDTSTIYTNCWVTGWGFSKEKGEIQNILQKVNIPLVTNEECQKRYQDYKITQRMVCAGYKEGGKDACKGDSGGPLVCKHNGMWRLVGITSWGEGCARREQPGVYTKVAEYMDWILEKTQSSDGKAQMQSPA
T1 sequence (P03952 20-390 partner limits assumed): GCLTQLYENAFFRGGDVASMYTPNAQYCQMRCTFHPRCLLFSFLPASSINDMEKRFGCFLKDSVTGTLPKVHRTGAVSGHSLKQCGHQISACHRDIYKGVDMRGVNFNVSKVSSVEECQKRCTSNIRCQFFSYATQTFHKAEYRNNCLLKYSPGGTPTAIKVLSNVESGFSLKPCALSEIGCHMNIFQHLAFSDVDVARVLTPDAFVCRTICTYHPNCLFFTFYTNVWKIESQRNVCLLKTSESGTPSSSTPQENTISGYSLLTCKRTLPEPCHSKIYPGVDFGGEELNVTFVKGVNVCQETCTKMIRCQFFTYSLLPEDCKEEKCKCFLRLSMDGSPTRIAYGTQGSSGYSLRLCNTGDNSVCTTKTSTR

SMILES | Ki [1] [nM] | Ki [2] [nM] | aPTT (IC1.5×) [3] [µM]
O=C(O)c1ccc(NC(=O)[C@H](Cc2ccccc2)n2cnc(-c3cc(Cl)ccc3-n3cc(Cl)nn3)cc2=O)cc1 [Example 15, (S)-4-(2-(4-(5-chloro-2-(4-chloro-1H-1,2,3-triazol-1-yl)phenyl)-6-oxopyrimidin-1(6H)-yl)-3-phenylpropanamido)benzoic Acid] | 189 | 2.5 | 1.74
Cc1c(CC(C(=O)Nc2ccc(C(=O)O)cc2)N2CCC(c3c(F)ccc(Cl)c3F)=CC2=O)ccc2cn[nH]c12 (centres unmarked) [Example 135, 4-(2-(4-(3-chloro-2,6-difluorophenyl)-6-oxo-3,6-dihydropyridin-1(2H)-yl)-3-(7-methyl-1H-indazol-6-yl)propanamido)benzoic Acid] | 1870 | 199 | 1.74
O=C(O)c1ccc(NC(=O)[C@H](Cc2ccccc2)n2cnc(-c3cc(Cl)ccc3-n3cc(C(F)(F)F)nn3)cc2=O)cc1 [Example 14, (S)-4-(2-(4-(5-chloro-2-(4-(trifluoromethyl)-1H-1,2,3-triazol-1-yl)phenyl)-6-oxopyrimidin-1(6H)-yl)-3-phenylpropanamido)benzoic Acid] | 239 | 3.1 | 1.85
N#Cc1ccc(Cl)c(F)c1C1=CC(=O)N(C(Cc2ccccc2)C(=O)Nc2ccc(C(=O)O)cc2)CC1 (centres unmarked) [Example 130, 4-{2-[4-(3-Chloro-6-cyano-2-fluorophenyl)-6-oxo-1,2,3,6-tetrahydropyridin-1-yl]-3-phenylpropanamido}benzoic Acid] | – | 12.8 | 17.5
O=C(Nc1ccc2nccnc2c1)[C@H](Cc1ccccc1)n1cnc(-c2cc(Cl)ccc2-n2cc(Cl)nn2)cc1=O [Example 30, (S)-2-(4-(5-chloro-2-(4-chloro-1H-1,2,3-triazol-1-yl)phenyl)-6-oxopyrimidin-1(6H)-yl)-3-phenyl-N-(quinoxalin-6-yl)propanamide] | – | 6.44 | 15.2
O=C(Nc1ccc2cn[nH]c2c1)[C@H](Cc1ccccc1)n1cnc(-c2cc(Cl)ccc2-n2cc(Cl)nn2)cc1=O [Example 17, (S)-2-(4-(5-chloro-2-(4-chloro-1H-1,2,3-triazol-1-yl)phenyl)-6-oxopyrimidin-1(6H)-yl)-N-(1H-indazol-6-yl)-3-phenylpropanamide] | 166 | 16 | 17.6
O=C(O)c1ccc(NC(=O)[C@H](Cc2ccccc2)n2cnc(-c3c(-n4cc(Cl)nn4)ccc(Cl)c3F)cc2=O)cc1 [Example 9, (S)-4-(2-(4-(3-chloro-6-(4-chloro-1H-1,2,3-triazol-1-yl)-2-fluorophenyl)-6-oxopyrimidin-1(6H)-yl)-3-phenylpropanamido)benzoic Acid] | 36 | 0.64 | 0.91
O=C(Nc1ccc2c(=O)[nH]ccc2c1)[C@H](Cc1ccccc1)n1cnc(-c2cc(Cl)ccc2-n2cc(Cl)nn2)cc1=O [Example 96, (S)-2-(4-(5-chloro-2-(4-chloro-1H-1,2,3-triazol-1-yl)phenyl)-6-oxopyrimidin-1(6H)-yl)-N-(1-oxo-1,2-dihydroisoquinolin-6-yl)-3-phenylpropanamide] | – | 19.8 | 13.6
O=C(O)Cn1cc(NC(=O)[C@H](Cc2ccccc2)n2cnc(-c3cc(Cl)ccc3-n3cc(Cl)nn3)cc2=O)cn1 [Example 11, 2-{4-[(2S)-2-{4-[5-Chloro-2-(4-chloro-1H-1,2,3-triazol-1-yl)phenyl]-6-oxo-1,6-dihydropyrimidin-1-yl}-3-phenyl-propanamido]-1H-pyrazol-1-yl}acetic Acid] | 2100 | 56.4 | –
O=C(Nc1ccccc1)[C@H](Cc1ccccc1)n1cnc(-c2cc(Cl)ccc2-n2cc(Cl)nn2)cc1=O [Example 12, (S)-2-(4-(5-chloro-2-(4-chloro-1H-1,2,3-triazol-1-yl)phenyl)-6-oxopyrimidin-1(6H)-yl)-N,3-diphenylpropanamide] | 1480 | 35.7 | –
O=C1Cc2cc(NC(=O)[C@H](Cc3ccccc3)n3cnc(-c4cc(Cl)ccc4-n4cc(Cl)nn4)cc3=O)ccc2N1 [Example 23, (S)-2-(4-(5-chloro-2-(4-chloro-1H-1,2,3-triazol-1-yl)phenyl)-6-oxopyrimidin-1(6H)-yl)-N-(2-oxoindolin-5-yl)-3-phenylpropanamide] | – | 6.6 | 8.0
O=C(O)c1ccc(NC(=O)[C@H](Cc2ccccc2)N2CCC(c3cc(Cl)ccc3-n3cc(Cl)nn3)=CC2=O)cc1 [Example 142, (S)-4-(2-(4-(5-chloro-2-(4-chloro-1H-1,2,3-triazol-1-yl)phenyl)-6-oxo-3,6-dihydropyridin-1(2H)-yl)-3-phenylpropanamido)benzoic Acid] | – | 1.73 | 2.39
O=C(O)c1ccc(NC(=O)[C@H](Cc2ccc(NC(=O)C3CC3)cc2)N2CCC(c3cc(Cl)ccc3-n3cc(Cl)nn3)=CC2=O)cc1 [Example 141, (S)-4-(2-(4-(5-chloro-2-(4-chloro-1H-1,2,3-triazol-1-yl)phenyl)-6-oxo-3,6-dihydropyridin-1(2H)-yl)-3-(4-(cyclopropanecarboxamido)phenyl)propanamido)benzoic Acid] | – | 0.92 | 2.05
O=C(O)c1ccc(NC(=O)[C@H](Cc2ccccc2)n2ncc(-c3c(F)ccc(Cl)c3F)cc2=O)cc1 [Example 144, 4-[(2S)-2-[4-(3-Chloro-2,6-difluorophenyl)-6-oxo-1,6-dihydropyridazin-1-yl]-3-phenylpropanamido]benzoic Acid] | 6900 | 1030 | –
O=C(Nc1ccc2[nH]c(C(F)(F)F)nc2c1)[C@H](Cc1ccccc1)n1cnc(-c2cc(Cl)ccc2-n2cc(Cl)nn2)cc1=O [Example 16, (S)-2-(4-(5-chloro-2-(4-chloro-1H-1,2,3-triazol-1-yl)phenyl)-6-oxopyrimidin-1(6H)-yl)-3-phenyl-N-(2-(trifluoromethyl)-1H-benzo[d]imidazol-5-yl)propanamide] | 257 | 26 | –

— patent publication US10336730B2, “Substituted glycine derived FXIA inhibitors” (BRISTOL-MYERS SQUIBB COMPANY, priority 2015, dated 2019)
